Values belong to the compound of their own block, whether it stands above or below them.
Assays:
fat cell A1 receptor = target: T1, fat cell A1 receptor (Rattus norvegicus, UniProt P25099); assay: antagonism of R-PIA-induced inhibition of isoproterenol-stimulated adenylate cyclase activity in fat cell membranes; assay type: biochemical; conditions: result in words
T1 construct: from tissue; host or cells: rat fat cell membranes
T1 sequence (P25099 1-326): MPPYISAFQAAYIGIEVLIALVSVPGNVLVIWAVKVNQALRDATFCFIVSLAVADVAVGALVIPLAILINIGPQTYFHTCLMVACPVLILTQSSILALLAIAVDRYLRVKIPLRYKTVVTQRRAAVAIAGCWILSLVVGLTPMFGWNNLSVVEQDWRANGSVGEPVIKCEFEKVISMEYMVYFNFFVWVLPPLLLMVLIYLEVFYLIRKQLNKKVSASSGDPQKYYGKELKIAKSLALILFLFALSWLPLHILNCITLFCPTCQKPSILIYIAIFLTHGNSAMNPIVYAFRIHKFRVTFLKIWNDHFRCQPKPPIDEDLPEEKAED
Method: (§1) Human platelet, rat pheochromocytoma (PC12) cell, rat fat cell and rat cerebral cortex membranes were prepared as described (4,5,6). Adenylate cyclase activity and binding of [^3H]PIA to cerebral cortex membranes were determined essentially as described (4,5,6).
(§2) KB values for the compounds were determined as described (4). […] EC50 and IC50 values for the agonists were obtained from the concentration-response curves by linear regression after logit-log transformation. KB values of the antagonists were calculated using the Schild equation KB = C/(CR-1), where C denotes the concentration of the competitor and CR the ratio of the EC50 and IC50 values in the presence and absence, respectively, of the competitor. IC50 of the compounds for inhibition of [^3H]PIA binding to cerebral cortex membranes were transformed into Ki values as described (6).

A1 receptors = target: T2, A1 receptors (Rattus norvegicus, UniProt P25099); assay: inhibition of [^3H]PIA binding to rat cerebral cortex membranes; conditions: result in words
T2 construct: from tissue; host or cells: rat cerebral cortex membranes
T2 sequence (P25099 1-326): T1 sequence (P25099 1-326)
Method: as §1, §2

[1] = target: T3, A2 receptors of platelets (Homo sapiens, UniProt P29274); assay: antagonism of NECA-induced stimulation of adenylate cyclase activity of human platelet membranes; assay type: biochemical; conditions: for antagonist potency at the platelet A2 receptor: NECA-induced stimulation of adenylate cyclase, human platelet membranes, result in words
T3 construct: NECA-induced stimulation of adenylate cyclase activity of human platelet membranes; from tissue; host or cells: human platelet membranes
T3 sequence (P29274 whole entry): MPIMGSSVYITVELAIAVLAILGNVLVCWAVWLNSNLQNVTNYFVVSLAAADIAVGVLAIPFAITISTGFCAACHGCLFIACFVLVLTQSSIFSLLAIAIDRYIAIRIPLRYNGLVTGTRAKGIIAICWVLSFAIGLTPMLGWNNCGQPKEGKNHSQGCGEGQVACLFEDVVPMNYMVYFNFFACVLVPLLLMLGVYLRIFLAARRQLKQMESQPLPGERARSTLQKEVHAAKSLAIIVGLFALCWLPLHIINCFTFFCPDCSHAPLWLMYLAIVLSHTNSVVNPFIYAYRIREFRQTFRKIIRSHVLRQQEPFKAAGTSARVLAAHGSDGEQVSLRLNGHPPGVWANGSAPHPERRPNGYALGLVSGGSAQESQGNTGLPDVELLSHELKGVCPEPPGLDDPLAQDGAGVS
Method: as §1, §2
In these cells, A2 receptor-mediated stimulation of adenylate cyclase results in an inhibition of aggregation (5,7).

[2] = target: T4, A2 receptors of rat pheochromocytoma (PC12) cells (Rattus norvegicus, UniProt P30543); assay: antagonism of NECA-induced stimulation of adenylate cyclase activity of PC12 cell membranes; assay type: biochemical; conditions: NECA-stimulated adenylate cyclase, result in words
T4 construct: NECA-induced stimulation of adenylate cyclase activity of the PC12 cells membranes; endogenous in cells; host or cells: rat pheochromocytoma PC12 cell membranes
T4 sequence (P30543 whole entry): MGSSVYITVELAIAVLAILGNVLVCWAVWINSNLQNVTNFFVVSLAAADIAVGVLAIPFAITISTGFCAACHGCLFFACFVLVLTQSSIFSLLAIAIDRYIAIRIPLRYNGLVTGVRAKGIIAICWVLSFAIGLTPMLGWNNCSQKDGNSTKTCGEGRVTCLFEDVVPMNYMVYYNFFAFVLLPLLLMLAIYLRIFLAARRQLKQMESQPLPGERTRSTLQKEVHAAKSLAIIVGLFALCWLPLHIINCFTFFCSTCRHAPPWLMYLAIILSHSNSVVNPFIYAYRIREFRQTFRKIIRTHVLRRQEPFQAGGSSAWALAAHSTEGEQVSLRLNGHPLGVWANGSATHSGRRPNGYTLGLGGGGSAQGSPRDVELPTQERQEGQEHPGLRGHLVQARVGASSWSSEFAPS
Method: as §1, §2

A1 adenosine receptor = target: T5, A1 adenosine receptor (Cavia porcellus, UniProt P47745); assay: antagonism of adenosine agonists' reduction in force of contraction of guinea pig atrium; assay type: cell-based; conditions: for basal force of contraction in the atria / antagonism at adenosine receptors in the atria: guinea pig atria; for antagonism at adenosine receptors in the atria: result in words
T5 construct: The left atria from male guinea pigs were isolated; from tissue; host or cells: isolated guinea pig left atrium
T5 sequence (P47745 1-326): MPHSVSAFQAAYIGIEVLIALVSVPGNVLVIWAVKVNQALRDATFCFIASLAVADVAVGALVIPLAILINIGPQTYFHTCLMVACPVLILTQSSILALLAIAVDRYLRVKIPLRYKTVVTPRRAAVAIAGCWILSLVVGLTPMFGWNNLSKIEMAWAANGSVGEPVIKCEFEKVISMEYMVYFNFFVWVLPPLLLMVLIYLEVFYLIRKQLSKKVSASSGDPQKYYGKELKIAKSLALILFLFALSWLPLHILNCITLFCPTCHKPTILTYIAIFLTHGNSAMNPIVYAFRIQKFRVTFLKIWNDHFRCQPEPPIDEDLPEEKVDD
Method: The left atria from male guinea pigs were isolated, suspended between two punctate electrodes, and placed in a 20 ml organ bath that contained Krebs-Hensileit solution that was continuously gassed with 95% O2 + 5% CO2 and maintained at 31°C. The resting tension was one gram. Theatria were stimulated electrically at 1 hz, 1 ms duration pulses at supramaximal voltage. The force of contraction was recorded isometrically.
(§3) The ability of the compounds to antagonize the effects of agonists was analyzed using modified Schild plots.

A2-adenosine receptors = assay: antagonism of adenosine agonists' decrease in contractile tone of guinea pig taenia caecum; assay type: cell-based; conditions: result in words
Method: The tissues were suspended in a 20 ml organ bath containing de Jalon's solution that was gassed with 95% O2 + 5% CO2 and maintained at 31°C. The resting tension was 1.5 g. The contractile response was measured isotonically.
as §3

A1 or A2 receptors = target: T6, A1 or A2 receptors (Rattus norvegicus, UniProt P25099); assay: comparison of activity across the A1 and A2 adenosine receptor systems (discussion); assay type: biochemical; conditions: test system not specified
T6 sequence (P25099 1-326): T1 sequence (P25099 1-326)
Method: as §1, §2

[3] = system: heart rate and blood pressure; assay: in vivo heart rate and blood pressure in anesthetized rats after adenosine or NECA; conditions: urethan-anesthetized rats, intravenous
Text: Drug injections were made intravenously through a jugular cannula.

[4] = affinity constants, guinea pig left atria, modified Schild plots

Compound: Nc1ncnc2nc[nH]c12 [Example 1, Adenine, reference compound]
antagonistic potency at the fat cell A1 receptor (fat cell A1 receptor): does not affect
Ki-values for inhibition of [^3H]PIA binding (A1 receptors): low potency
antagonist potency at the platelet A2 receptor [1]: very weak antagonist
basal adenylate cyclase activity ([1]; human platelets, data not shown): does not affect
antagonist potency at the A2 receptor of PC12 cells [2]: very weak antagonist

Compound: Cn1cnc2c(Nc3ccccc3)ncnc21 [Example 9, N^6-Phenyl-9-MA]
antagonistic potency at the fat cell A1 receptor (fat cell A1 receptor): more potent than 9-methyladenine
antagonist potency at the platelet A2 receptor [1]: equipotent to 9-methyladenine
antagonist potency at the A2 receptor of PC12 cells [2]: more potent at the platelet A2 receptor than at the PC12 A2 receptor

Compound: Cn1cnc2c(N)ncnc21 [Example 2, 9-methyladenine, reference compound]
antagonistic potency at the fat cell A1 receptor (fat cell A1 receptor): antagonizes the effect of R-PIA
Ki-values for inhibition of [^3H]PIA binding (A1 receptors): equally potent at A1 receptors of fat cells and cerebral cortex
antagonist potency at the platelet A2 receptor [1]: more potent than the adenine itself
antagonist potency at the A2 receptor of PC12 cells [2]: equally potent at A2 receptors of human platelets and rat PC12 cells

Compound: CCC(CC)Nc1ncnc2c1ncn2C [Example 8, N^6-3-pentyl-9-methyladenine]
antagonism of the effects of adenosine agonists in relaxing the taenia caecum (A2-adenosine receptors): did not competitively antagonize
Kb (A1 adenosine receptor; [4]): 3980 nM
basal force of contraction in the atria (A1 adenosine receptor): produced increases
antagonism at adenosine receptors in the atria (A1 adenosine receptor): competitive antagonists
antagonistic potency at the fat cell A1 receptor (fat cell A1 receptor): more potent than the parent compound
antagonist potency at the platelet A2 receptor [1]: more potent
antagonist potency at the A2 receptor of PC12 cells [2]: more potent at the platelet A2 receptor than at the PC12 A2 receptor

Compound: Cn1cnc2c(NC3CCC3)ncnc21 [Example 3, N^6-Cyclobutyl-9-MA]
activity at A1 receptors (A1 or A2 receptors): the most potent of N^6-substituted 9-methyladenines at A1 receptors
antagonistic potency at the fat cell A1 receptor (fat cell A1 receptor): more potent than the parent compound
antagonist potency at the platelet A2 receptor [1]: more potent than 9-methyladenine itself

Compound: Cn1cnc2c(NC3(C)CCCC3)ncnc21 [Example 5, N^6-1-methylcyclopentyl-9-methyladenine]
activity at A1 receptors (A1 or A2 receptors): reduces activity at A1 receptors
antagonistic potency at the fat cell A1 receptor (fat cell A1 receptor): less potent than the N^6-cyclopentyl analog
antagonist potency at the platelet A2 receptor [1]: less potent than the parent cyclopentyl analog
antagonist potency at the A2 receptor of PC12 cells [2]: reduces potency

Compound: Cn1cnc2c(NC3CCCC3)ncnc21 [Example 4, N^6-cyclopentyl-9-methyladenine]
antagonism of the effects of adenosine agonists in relaxing the taenia caecum (A2-adenosine receptors): did not competitively antagonize
Kb (A1 adenosine receptor; [4]): 676 nM
antagonism at adenosine receptors in the atria (A1 adenosine receptor): competitive antagonists
activity at A1 receptors (A1 or A2 receptors): the most potent of N^6-substituted 9-methyladenines at A1 receptors
antagonistic potency at the fat cell A1 receptor (fat cell A1 receptor): more potent than the parent compound
Ki-values for inhibition of [^3H]PIA binding (A1 receptors): more potent than the N^6-methylcyclopentyl analog
antagonist potency at the platelet A2 receptor [1]: more potent than 9-methyladenine itself
antagonist potency at the A2 receptor of PC12 cells [2]: more potent at the platelet A2 receptor than at the PC12 A2 receptor

Compound: Cn1cnc2c(N[C@@H]3C[C@@H]4CC[C@H]3C4)ncnc21 (relative stereo) [N^6-(endonorbornyl)-9-methyladenine]
effects of subsequently administered adenosine on blood pressure, heart rate and P-R interval [3]: attenuated
heart block caused by adenosine at high doses [3]: substantially reduced

Compound: CNc1ncnc2c1ncn2C [Example 7, N^6-Methyl-9-MA]
antagonistic potency at the fat cell A1 receptor (fat cell A1 receptor): less potent than 9-methyladenine
antagonist potency at the platelet A2 receptor [1]: much less potent than 9-methyladenine

Compound: Cn1cnc2c(NC3CCCCC3)ncnc21 [Example 6, N^6-Cyclohexyl-9-MA]
activity at A1 receptors (A1 or A2 receptors): the most potent of N^6-substituted 9-methyladenines at A1 receptors
antagonistic potency at the fat cell A1 receptor (fat cell A1 receptor): more potent than the parent compound
antagonist potency at the platelet A2 receptor [1]: more potent than 9-methyladenine itself

Compound: Cn1c(=O)c2[nH]c(-c3ccccc3)nc2n(C)c1=O [Example 8-PT, 8-phenyltheophylline, reference compound]
antagonism of the effects of adenosine agonists in relaxing the taenia caecum (A2-adenosine receptors): did antagonize the effects of agonists at low concentrations

Next, values leading:

pKB (A1 adenosine receptor; [4]): 5.36 ± 0.1
basal force of contraction in the atria (A1 adenosine receptor): produced increases
antagonism at adenosine receptors in the atria (A1 adenosine receptor): competitive antagonists
Compound: N^6-4-(-2-thienyl) -3-butyl) -9-MA [Example 23]

antagonistic potency at the fat cell A1 receptor (fat cell A1 receptor): more potent than 9-methyladenine itself
Compound: Cn1cnc2c(NCCc3ccsc3)ncnc21 [N^6-2-(3-thienylethyl)-9-methyladenine]

antagonist potency at the platelet A2 receptor [1]: somewhat more potent
Compound: Cn1cnc2c(NCCc3ccsc3)ncnc21 [Example 15, N^6-2-(3-thienylethyl)-9-methyladenine]

antagonistic potency at the fat cell A1 receptor (fat cell A1 receptor): more potent than the parent compound
Ki-values for inhibition of [^3H]PIA binding (A1 receptors): more potent than the S-isomer
antagonist potency at the platelet A2 receptor [1]: more potent than the S-isomer
Compound: C[C@H](Cc1ccccc1)Nc1ncnc2c1ncn2C [Example 16, N^6-R-1-Phenyl-2-propyl-9-MA]

Ki-values for inhibition of [^3H]PIA binding (A1 receptors): very weak antagonists
antagonist potency at the platelet A2 receptor [1]: as potent as 9-methyladenine
Compound: COc1cc(CCNc2ncnc3c2ncn3C)cc(OC)c1OC [Example 13, N^6-2-(3,4,5-trimethoxyphenylethyl)-9-methyladenine]

antagonistic potency at the fat cell A1 receptor (fat cell A1 receptor): more potent than 9-methyladenine
antagonist potency at the platelet A2 receptor [1]: increases potency
Compound: Cn1cnc2c(Nc3ccccc3F)ncnc21 [Example 10, N^6-2-Fluorophenyl-9-MA]

antagonistic potency at the fat cell A1 receptor (fat cell A1 receptor): much less potent
Ki-values for inhibition of [^3H]PIA binding (A1 receptors): very weak antagonists
antagonist potency at the platelet A2 receptor [1]: less potent than 9-methyladenine
Compound: Cn1cnc2c(NCCc3ccccc3)ncnc21 [Example 12, N^6-2-Phenethyl-9-MA]

antagonist potency at the platelet A2 receptor [1]: less potent than 9-methyladenine
Compound: Cn1cnc2c(NCCc3cccnc3)ncnc21 [Example 14, N^6-2-(3-pyridylethyl)-9-methyladenine]

activity at A1 receptors (A1 or A2 receptors): modest activity
antagonist potency at the platelet A2 receptor [1]: less potent than 9-methyladenine
Compound: Cn1cnc2c(NCc3ccccc3)ncnc21 [Example 11, N^6-benzyl-9-methyladenine]

antagonistic potency at the fat cell A1 receptor (fat cell A1 receptor): more potent than the parent compound
Compound: C[C@@H](Cc1ccccc1)Nc1ncnc2c1ncn2C [Example 17, N^6-S-1-Phenyl-2-propyl-9-MA]
